Source: US20240109865A1, “INDAZOLE COMPOUNDS AS KINASE INHIBITORS” (TYRA BIOSCIENCES, INC., priority 2020, published 2024)

Legend:
FGFR1-BCR Ba/F3 cells = FGFR1-BCR Ba/F3 cells (Homo sapiens, UniProt P11362); assay: Ba/F3 cell viability assay (CellTiter-Glo 2.0), FGFR1-BCR Ba/F3; type: cell-based; settings: read-out: Ba/F3 Cells FGFR1 (IC50 nM), 48 hours, Cell Titer Glo 2.0
Description: (§1) Experimental Purpose: Recombinant kinase fusions are transduced into parental Ba/F3, which becomes dependent upon this constitutive kinase activity for IL3-independent survival. Inhibition of kinase activity leads to cell death, which is monitored using CellTiter-Glo® 2.0 (Promega) which measures intracellular ATP concentration that in turn serves as a marker for viability. FGFR1-BCR Ba/F3 and FGFR3-BAIAP2L1 Ba/F3 were obtained from Advanced Cellular Dynamics (Seattle, WA)
(§2) Cell Viability Assay Procedure: Cell Titer-Glo® 2.0 Luminescent cell viability assay reagent was purchased from Promega (Madison, WI). FGFR1-BCR Ba/F3 and FGFR3-BAIAP2L1 Ba/F3 cells were cultured in RPMI1640 media supplemented with 10% fetal bovine serum. Cultures were maintained at 37° C. in a humidified atmosphere of 5% C02 and 95% air.
(§3) Cells were plated in 96-well clear bottom/white plates (Corning #3903) at 10,000 cells/well in 100 μl of media, incubated overnight. The next day, test compound DMSO stock solutions were made at 10 mM and 2 μM final concentration. Compounds were then added to cells in a 9-dose, 10-fold dilution series starting at 30 μM with an HP 300e Digital Dispenser (each dose was applied in triplicate). DMSO was backfilled to each well up to 301 nL total volume of test compound+DMSO, and a total of 301 nL DMSO was added to a control/no test compound well in triplicate. The cells in cell culture plates were incubated with the compounds at 37° C. and 5% C02 for 48 hours. Then 50 μl of Cell Titer Glo 2.0 reagent was added to each well of the cell culture plates. The contents were covered from light and mixed on an orbital shaker at room temperature for 10 min. Luminescence was recorded by a Synergy H1 Microplate Reader (Biotek, Winooski, VT). Cells were assessed as a percentage of DMSO only treated control cells. Curves were plotted and IC50 values were calculated using the GraphPad Prism 8 program based on a sigmoidal dose-response equation (4 parameter).

FGFR3 = FGFR3 (Homo sapiens (Human), UniProt P22607); assay: Kinase assay, binding constants (Kd), kinase-tagged T7 phage, qPCR
Procedure, shortened: (§4)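 Competition binding: kinase-tagged T7 phage lysates mixed with immobilized biotinylated ligand on streptavidin beads plus compound (11-point 3-fold dilution series, 0.9% DMSO final). Bound kinase eluted with free ligand and quantified by qPCR. Kd from Hill equation fit, slope fixed at −1.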

FGFR2 = FGFR2 (Homo sapiens (Human), UniProt P21802); assay: as above
Procedure, shortened: as §4

FGFR1 = FGFR1 (Homo sapiens (Human), UniProt P11362); assay: as above
Procedure, shortened: as §4

FGFR3 (V555M) = FGFR3 (V555M) (Homo sapiens (Human), UniProt P22607, V555M); assay: as above; settings: V555M mutant
Procedure, shortened: as §4

FGFR4 = FGFR4 (Homo sapiens (Human), UniProt P22455); assay: as above
Procedure, shortened: as §4

[1] = molecular target: FGFR3-BAIAP2L1 Ba/F3 cells (Homo sapiens, UniProt P22607); assay: Ba/F3 cell viability assay (CellTiter-Glo 2.0), FGFR3-BAIAP2L1 Ba/F3; type: cell-based; settings: for Ba/F3 FGFR1/FGFR3 Selectivity: FGFR3 > FGFR1 selectivity ratio in Ba/F3 FGFR fusion cell based assays; for IC50: read-out: Ba/F3 Cells FGFR3 (IC50 nM), FGFR3-BAIAP2L1 Ba/F3 cells, 48 hours, Cell Titer Glo 2.0
Description: as §1, §2, §3

Chain of FGFR1-BCR Ba/F3 cells (P11362 22-822 limits assumed, change not shown): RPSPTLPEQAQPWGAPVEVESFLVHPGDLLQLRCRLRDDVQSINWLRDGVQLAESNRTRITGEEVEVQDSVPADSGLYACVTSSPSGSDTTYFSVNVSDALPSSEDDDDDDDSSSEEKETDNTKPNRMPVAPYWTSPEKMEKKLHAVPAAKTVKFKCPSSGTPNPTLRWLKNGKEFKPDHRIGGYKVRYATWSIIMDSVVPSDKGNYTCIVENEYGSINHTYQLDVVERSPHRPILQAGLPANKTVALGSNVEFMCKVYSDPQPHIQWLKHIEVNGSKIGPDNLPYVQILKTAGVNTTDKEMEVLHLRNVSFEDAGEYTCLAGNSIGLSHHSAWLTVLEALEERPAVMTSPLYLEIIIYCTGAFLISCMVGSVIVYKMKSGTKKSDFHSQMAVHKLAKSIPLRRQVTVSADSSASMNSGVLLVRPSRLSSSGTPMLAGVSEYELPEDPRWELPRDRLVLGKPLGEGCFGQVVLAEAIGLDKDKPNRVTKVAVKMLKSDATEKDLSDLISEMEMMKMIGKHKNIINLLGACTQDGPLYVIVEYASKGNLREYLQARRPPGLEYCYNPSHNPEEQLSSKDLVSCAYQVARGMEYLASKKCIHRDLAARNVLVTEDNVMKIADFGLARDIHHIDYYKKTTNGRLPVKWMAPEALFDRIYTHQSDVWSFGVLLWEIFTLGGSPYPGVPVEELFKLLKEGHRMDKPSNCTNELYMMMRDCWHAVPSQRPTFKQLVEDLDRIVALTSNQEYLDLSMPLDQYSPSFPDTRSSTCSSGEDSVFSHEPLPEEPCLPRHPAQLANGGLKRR
Chain of FGFR1 (P11362 22-822): as the sequence (P11362 22-822 limits assumed, change not shown) above
Chain of FGFR3 (V555M) (P22607 23-806 V555M): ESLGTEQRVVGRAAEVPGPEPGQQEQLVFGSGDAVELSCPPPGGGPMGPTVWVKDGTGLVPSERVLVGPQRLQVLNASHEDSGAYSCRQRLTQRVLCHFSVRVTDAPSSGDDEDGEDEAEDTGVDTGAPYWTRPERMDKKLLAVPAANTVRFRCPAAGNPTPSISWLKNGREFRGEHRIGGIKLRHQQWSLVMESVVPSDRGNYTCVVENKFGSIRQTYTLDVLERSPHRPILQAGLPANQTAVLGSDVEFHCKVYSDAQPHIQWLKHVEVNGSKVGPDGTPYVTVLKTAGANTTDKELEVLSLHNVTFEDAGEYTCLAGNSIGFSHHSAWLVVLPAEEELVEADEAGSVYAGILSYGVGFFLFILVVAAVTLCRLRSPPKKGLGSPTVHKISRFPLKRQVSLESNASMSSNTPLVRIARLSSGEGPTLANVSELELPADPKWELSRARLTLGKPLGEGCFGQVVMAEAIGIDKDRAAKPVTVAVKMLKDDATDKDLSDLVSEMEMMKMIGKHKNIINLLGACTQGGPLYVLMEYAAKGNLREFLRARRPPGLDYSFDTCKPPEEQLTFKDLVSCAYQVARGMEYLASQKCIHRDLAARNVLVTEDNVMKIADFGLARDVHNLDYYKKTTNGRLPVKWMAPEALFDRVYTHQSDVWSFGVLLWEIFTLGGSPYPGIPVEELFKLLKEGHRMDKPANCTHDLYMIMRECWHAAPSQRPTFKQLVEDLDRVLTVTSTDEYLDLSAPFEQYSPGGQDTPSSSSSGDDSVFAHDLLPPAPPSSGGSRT
Chain of FGFR4 (P22455 22-802): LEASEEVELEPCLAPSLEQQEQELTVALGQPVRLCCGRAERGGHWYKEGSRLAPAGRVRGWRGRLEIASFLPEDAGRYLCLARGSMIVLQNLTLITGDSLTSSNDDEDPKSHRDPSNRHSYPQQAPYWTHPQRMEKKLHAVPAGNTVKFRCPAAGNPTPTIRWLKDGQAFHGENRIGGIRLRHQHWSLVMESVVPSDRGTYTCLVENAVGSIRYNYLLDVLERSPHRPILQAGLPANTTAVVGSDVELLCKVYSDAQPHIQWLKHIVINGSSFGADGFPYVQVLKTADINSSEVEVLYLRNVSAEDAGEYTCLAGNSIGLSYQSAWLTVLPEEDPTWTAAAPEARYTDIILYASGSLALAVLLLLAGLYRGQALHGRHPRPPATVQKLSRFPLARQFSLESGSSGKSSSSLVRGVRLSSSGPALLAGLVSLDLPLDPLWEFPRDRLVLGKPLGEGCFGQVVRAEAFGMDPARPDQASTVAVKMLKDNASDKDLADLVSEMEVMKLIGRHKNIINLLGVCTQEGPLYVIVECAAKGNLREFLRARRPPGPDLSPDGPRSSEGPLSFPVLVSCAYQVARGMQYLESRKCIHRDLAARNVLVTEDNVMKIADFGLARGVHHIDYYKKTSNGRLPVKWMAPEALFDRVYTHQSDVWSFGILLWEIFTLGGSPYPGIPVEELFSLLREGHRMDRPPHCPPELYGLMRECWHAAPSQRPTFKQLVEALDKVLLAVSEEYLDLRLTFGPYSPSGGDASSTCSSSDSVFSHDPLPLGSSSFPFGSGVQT
Chain of FGFR3 (P22607 23-806): as the sequence (P22607 23-806 V555M) above, with M533V counted along it
Chain of FGFR3-BAIAP2L1 Ba/F3 cells (P22607 23-806 limits assumed, change not shown): as the sequence (P22607 23-806 V555M) above, with M533V counted along it
Chain of FGFR2 (P21802 22-821): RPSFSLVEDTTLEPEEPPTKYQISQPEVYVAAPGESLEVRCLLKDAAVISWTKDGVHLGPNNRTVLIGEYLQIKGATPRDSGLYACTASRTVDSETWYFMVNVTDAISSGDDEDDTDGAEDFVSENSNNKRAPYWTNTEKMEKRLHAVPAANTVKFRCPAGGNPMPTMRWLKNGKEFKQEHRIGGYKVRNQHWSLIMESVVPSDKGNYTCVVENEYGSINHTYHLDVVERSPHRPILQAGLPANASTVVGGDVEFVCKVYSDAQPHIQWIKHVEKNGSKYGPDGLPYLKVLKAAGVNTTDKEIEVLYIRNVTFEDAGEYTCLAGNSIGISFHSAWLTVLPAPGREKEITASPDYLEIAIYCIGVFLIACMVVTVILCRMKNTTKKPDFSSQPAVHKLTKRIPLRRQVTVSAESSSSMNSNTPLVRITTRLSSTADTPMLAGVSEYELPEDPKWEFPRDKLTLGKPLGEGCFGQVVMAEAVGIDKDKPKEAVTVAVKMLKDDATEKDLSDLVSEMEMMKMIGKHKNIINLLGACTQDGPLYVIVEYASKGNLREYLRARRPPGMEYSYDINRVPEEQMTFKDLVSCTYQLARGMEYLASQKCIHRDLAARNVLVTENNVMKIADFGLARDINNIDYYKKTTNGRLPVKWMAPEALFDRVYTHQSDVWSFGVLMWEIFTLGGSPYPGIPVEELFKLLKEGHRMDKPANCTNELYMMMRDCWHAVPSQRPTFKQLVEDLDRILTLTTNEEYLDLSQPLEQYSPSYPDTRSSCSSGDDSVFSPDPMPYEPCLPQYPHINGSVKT

Compound | IC50 (FGFR1-BCR Ba/F3 cells) [nM] | Kd (FGFR3) [nM] | Kd (FGFR2) [nM] | Kd (FGFR1) [nM] | Kd (FGFR3 (V555M)) [nM] | Kd (FGFR4) [nM] | Ba/F3 FGFR1/FGFR3 Selectivity [1] | IC50 [1] [nM]
COC(=O)N1CCN(c2ccc(-c3n[nH]c4ccc(O[C@H](C)c5c(Cl)cncc5Cl)cc34)cn2)CC1 [Example 7, Methyl 4-[5-[5-[(1R)-1-(3,5-dichloro-4-pyridyl)ethoxy]-1H-indazol-3-yl]-2-pyridyl]piperazine-1-carboxylate] | > 300 | 1 to 20 | 20 to 100 | 1 to 20 | 1 to 20 | 1 to 20 | 15 | 20 to 100
C[C@@H](Oc1ccc2[nH]nc(-c3ccc(Cl)nc3)c2c1)c1c(Cl)cncc1Cl [Example 18, 3-(6-Chloro-3-pyridyl)-5-[(1R)-1-(3,5-dichloro-4-pyridyl)ethoxy]-1H-indazole] | > 300 | 1 to 20 | 20 to 100 | 20 to 100 | 1 to 20 | 1 to 20 | 21 | 20 to 100
C[C@@H](Oc1ccc2[nH]nc(-c3ccc(F)nc3)c2c1)c1c(Cl)cncc1Cl [Example 25, 5-[(1R)-1-(3,5-Dichloro-4-pyridyl)ethoxy]-3-(6-fluoro-3-pyridyl)-1H-indazole] | > 300 | 1 to 20 | 20 to 100 | 20 to 100 | 1 to 20 | 20 to 100 | 22 | 20 to 100
C[C@@H](Oc1ccc2[nH]nc(-c3ccc(N4CCCNC(=O)C4)nc3)c2c1)c1c(Cl)cncc1Cl [Example 35, 4-[5-[5-[(1R)-1-(3,5-dichloro-4-pyridyl)ethoxy]-1H-indazol-3-yl]-2-pyridyl]-1,4-diazepan-2-one] | > 300 | 1 to 20 | 20 to 100 | 20 to 100 | 1 to 20 | 1 to 20 | 6 | 20 to 100
C[C@@H](Oc1ccc2[nH]nc(-c3ccc(N4CCNC(=O)C4)nc3)c2c1)c1c(Cl)cncc1Cl [Example 36, 4-[5-[5-[(1R)-1-(3,5-dichloro-4-pyridyl)ethoxy]-1H-indazol-3-yl]-2-pyridyl]piperazin-2-one] | 20 to 100 | 1 to 20 | 1 to 20 | 1 to 20 | 1 to 20 | 1 to 20 | 23 | 1 to 20
C[C@@H](Oc1ccc2[nH]nc(-c3ccc(N4CCNCC4=O)nc3)c2c1)c1c(Cl)cncc1Cl [Example 37, 1-[5-[5-[(1R)-1-(3,5-dichloro-4-pyridyl)ethoxy]-1H-indazol-3-yl]-2-pyridyl]piperazin-2-one] | 100 to 300 | 1 to 20 | 20 to 100 | 20 to 100 | 1 to 20 | 1 to 20 | 12 | 1 to 20
C[C@@H](Oc1ccc2[nH]nc(-c3ccc(N4CCN(C)CC4=O)nc3)c2c1)c1c(Cl)cncc1Cl [Example 38, 1-[5-[5-[(1R)-1-(3,5-dichloro-4-pyridyl)ethoxy]-1H-indazol-3-yl]-2-pyridyl]-4-methyl-piperazin-2-one] | 100 to 300 | 1 to 20 | 20 to 100 | 20 to 100 | 1 to 20 | 1 to 20 | 21 | 1 to 20
C[C@@H](Oc1ccc2[nH]nc(-c3ccc(N4CCN(S(C)(=O)=O)CC4=O)nc3)c2c1)c1c(Cl)cncc1Cl [Example 39, 1-[5-[5-[(1R)-1-(3,5-dichloro-4-pyridyl)ethoxy]-1H-indazol-3-yl]-2-pyridyl]-4-methylsulfonyl-piperazin-2-one] | 100 to 300 | 1 to 20 | 20 to 100 | 20 to 100 | 1 to 20 | 1 to 20 | 16 | 1 to 20
C[C@@H](Oc1ccc2[nH]nc(-c3ccc(N4CCC5(CCC(=O)N5C)CC4)nc3)c2c1)c1c(Cl)cncc1Cl [Example 40, 8-[5-[5-[(1R)-1-(3,5-dichloro-4-pyridyl)ethoxy]-1H-indazol-3-yl]-2-pyridyl]-1-methyl-1,8-diazaspiro[4.5]decan-2-one] | 20 to 100 | 1 to 20 | 1 to 20 | 1 to 20 | 1 to 20 | 1 to 20 | 30 | 1 to 20
C[C@@H]1CCN1c1ncc(-c2n[nH]c3cc(Cl)c(O[C@H](C)c4c(Cl)cncc4Cl)cc23)cc1C#N [Example 374, 5-(6-chloro-5-((R)-1-(3,5-dichloropyridin-4-yl)ethoxy)-1H-indazol-3-yl)-2-((R)-2-methylazetidin-1-yl)nicotinonitrile] | – | 100 to 300 | > 300 | > 300 | 20 to 100 | 20 to 100 | – | –
COc1cc2[nH]nc(-c3cnc(N4CC[C@@H]4C)c(S(C)(=O)=O)c3)c2cc1O[C@H](C)c1c(Cl)cncc1Cl [Example 375, 5-((R)-1-(3,5-dichloropyridin-4-yl)ethoxy)-6-methoxy-3-(6-((S)-2-methylazetidin-1-yl)-5-(methylsulfonyl)pyridin-3-yl)-1H-indazole] | – | 100 to 300 | > 300 | > 300 | 20 to 100 | 1 to 20 | – | –
COc1cc2[nH]nc(-c3cnc(N4CC(C)(C)C4)c(S(C)(=O)=O)c3)c2cc1O[C@H](C)c1c(Cl)cncc1Cl [Example 376, (R)-5-(1-(3,5-dichloropyridin-4-yl)ethoxy)-3-(6-(3,3-dimethylazetidin-1-yl)-5-(methylsulfonyl)pyridin-3-yl)-6-methoxy-1H-indazole] | – | 20 to 100 | 100 to 300 | > 300 | 20 to 100 | 1 to 20 | – | –
C[C@@H](Oc1cc2c(-c3cnc(N4CCC4)c(C#N)c3)n[nH]c2cc1Cl)c1c(Cl)cncc1Cl [Example 377, 2-(azetidin-1-yl)-5-[6-chloro-5-[(1R)-1-(3,5-dichloro-4-pyridyl)ethoxy]-1H-indazol-3-yl]pyridine-3-carbonitrile] | – | 100 to 300 | > 300 | > 300 | 20 to 100 | 1 to 20 | – | –
C[C@@H](Oc1cc2c(-c3cnc(N4CC5(CCS(=O)(=O)C5)C4)c(C#N)c3)n[nH]c2cc1F)c1c(Cl)cncc1Cl [Example 378, 5-[5-[(1R)-1-(3,5-dichloro-4-pyridyl)ethoxy]-6-fluoro-1H-indazol-3-yl]-2-(6,6-dioxo-6λ^6-thia-2-azaspiro[3.4]octan-2-yl)pyridine-3-carbonitrile] | – | 1 to 20 | 20 to 100 | 100 to 300 | 1 to 20 | 1 to 20 | – | –
Cc1ncc(Cl)c([C@@H](C)Oc2cc3c(-c4cnc(N5CC6(C5)CN(S(C)(=O)=O)C6)c(C#N)c4)n[nH]c3cc2F)c1Cl [Example 379, 5-[5-[(1R)-1-(3,5-dichloro-2-methyl-4-pyridyl)ethoxy]-6-fluoro-1H-indazol-3-yl]-2-(2-methylsulfonyl-2,6-diazaspiro[3.3]heptan-6-yl)pyridine-3-carbonitrile] | – | 20 to 100 | 100 to 300 | 100 to 300 | 1 to 20 | 1 to 20 | – | –
C[C@@H](Oc1cc2c(-c3cnc(N4CC5(CCCN(S(C)(=O)=O)C5)C4)c(C#N)c3)n[nH]c2cc1F)c1c(Cl)cncc1Cl [Example 380, 5-[5-[(1R)-1-(3,5-dichloro-4-pyridyl)ethoxy]-6-fluoro-1H-indazol-3-yl]-2-(8-methylsulfonyl-2,8-diazaspiro[3.5]nonan-2-yl)pyridine-3-carbonitrile] | – | 20 to 100 | > 300 | 100 to 300 | 20 to 100 | 1 to 20 | – | –
